Source: patent US20240174631A1, “COMPOUNDS, COMPOSITIONS, AND METHODS FOR MODULATING FGF ACTIVITY” (Recovery Therapeutics, Inc., priority 2021, published 2024)

Each molecule was assayed against T1, FGF2 (Homo sapiens, UniProt P09038) (assay: Thermal shift assay (TSA) of FGFR1/FGF2 complex, FGF2 melting peak). Settings: 2 μM compound.
T1 construct: made in house; host or cells: Escherichia coli BL21 (DE3) Star
Assay type: binding
Description: (§1) TSA was utilized to biophysically characterize the recombinant human FGFR1/FGF2 complex in the presence or absence of compounds. The assay functions by protein denaturation over a temperature gradient. During protein unfolding, exposed hydrophobic regions bind a dye and fluoresce due to solvent relaxation effects. Changes in the melting temperature of the protein complex in the presence of each compound were monitored and compounds were screened/ranked using this method.
One Shot BL21 (DE3) Star Escherichia coli competent cells (Thermo Fisher) were transformed with a relevant FGF2 plasmid and inoculated onto Ampicillin Luria Broth/Agar plates. Two hundred milliliter portions of Terrific Broth starter cultures were used to inoculate 9 L cultures with ampicillin at a concentration of 100 μg/mL. Cultures were grown to an O.D.600 near 1.0 at 37° C., and induced with IPTG overnight at 18° C. The cells were harvested at 7000 RPM in rotor 6000 for 5 min at 4° C. and stored at −80° C. Bacterial pellets were resuspended in 25 mM Hepes-NaOH, pH 7.5, 250 mM NaCl, and the cells were lysed in 3 cycles on/off for 3 minutes each at 4° C. via sonication. After centrifugation for 30 minutes at 16,000 RPM at 4° C., the isolated pellets were discarded, and the supernatant was filtered supernatant through a […] PES filter using 100 mL superloop. The lysate was purified over a 5 mL S column by washing the column with Lysis buffer for 5 CV then eluting using gradient from 250 mM to 1 M NaCl over 20 CV. The fractions containing FGF2 were identified via SDS-PAGE gel (Expected Mw: 15.2 KDa). The protein was collected and diluted in 20 mM Tris-HCl pH 8.0, 25 mM MgCl2 buffer in order to reach a NaCl concentration of 150 mM. The purified FGF2 was concentrated and stored at −80° C.
(§2) Thawed aliquots of purified FGF2 (1.0 mg/mL) and FGFR1 (1.6 mg/mL) proteins were mixed in a 1:1 molar ratio (64 μM: 64 μM) on ice for 30 min at 4° C. and plated prior to the thermal shift assay (TSA). Complex formation was verified by loading the complexed material on a size exclusion column (superdex 300GL S200) and observing the monodisperse peak corresponding to the FGF2/FGFR1 complex (˜40 kDa). Compounds of the invention were screened in dose response format (0-100 μM) with the FGF2/FGFR1 complex in triplicates. FGF2/FGFR1/compound complexes were mixed in a 1000:1 ratio with Sypro Orange dye (Sigma-Aldrich). The samples were processed using a Bio-Rad CFX C96 Touch quantitative polymerase chain reaction and run using the FRET assay settings with a heating ramp of 0.3° C./s cycling from 4 to 100° C. Data analysis was performed using the Bio-Rad CFX Manager Software (version 3.1, Bio-Rad) and changes in the melting temperature (Tm) of the complex in the presence of each compound were monitored. The results are shown in Tables 2 and 3 below and also in FIG. 1 (for Compound 2).

T1 sequence (P09038 156-288 limits assumed): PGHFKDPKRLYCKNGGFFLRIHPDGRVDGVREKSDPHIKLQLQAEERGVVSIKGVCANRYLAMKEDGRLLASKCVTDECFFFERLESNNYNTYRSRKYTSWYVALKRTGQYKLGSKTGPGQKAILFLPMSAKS
T1 sequence (P11362 142-365 partner limits assumed): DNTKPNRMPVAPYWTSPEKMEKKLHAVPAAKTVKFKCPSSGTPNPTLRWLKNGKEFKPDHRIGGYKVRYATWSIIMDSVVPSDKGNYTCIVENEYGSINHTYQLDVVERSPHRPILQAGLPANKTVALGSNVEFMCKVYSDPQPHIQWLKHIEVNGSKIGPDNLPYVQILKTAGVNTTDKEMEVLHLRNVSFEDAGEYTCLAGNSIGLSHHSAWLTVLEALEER

ΔTm at 2 µM | Compound
-2.7 °C | Fc1cccc2c1CCN(C1CN(C(c3ccccc3)c3ccccc3)C1)C2 [Compound 38, 2-(1-benzhydrylazetidin-3-yl)-5-fluoro-1,2,3,4-tetrahydroisoquinoline]
0 °C | CCN(CC)c1ccc2c(c1)CCN(C1CCN(Cc3ccc(F)cc3)CC1)C2 [Compound 85, N,N-diethyl-2-(1-(4-fluorobenzyl)piperidin-4-yl)-1,2,3,4-tetrahydroisoquinolin-6-amine]
-3.6 °C | FC1(F)CN(C2CCN(C(c3ccccc3)c3ccccc3)CC2)Cc2ccccc21 [Compound 21, 2-(1-benzhydrylpiperidin-4-yl)-4,4-difluoro-1,2,3,4-tetrahydroisoquinoline]
-2.2 °C | c1ccc(C(c2ccccc2)N2CCC(N3CCc4ccncc4C3)CC2)cc1 [Compound 4, 2-(1-benzhydrylpiperidin-4-yl)-1,2,3,4-tetrahydro-2,7-naphthyridine]

Same assay, conditions: 10 μM compound

ΔTm at 10 µM | Compound
-1.5 °C | Brc1ccc2c(c1)CCN(C1CCN(C(c3ccccc3)c3ccccc3)CC1)C2 [Compound 1, 2-(1-benzhydrylpiperidin-4-yl)-6-bromo-1,2,3,4-tetrahydroisoquinoline]
-0.2 °C | Fc1cccc2c1CCN(C1CCN(C(c3ccccc3)c3ccccc3)CC1)C2 [Compound 7, 2-(1-benzhydrylpiperidin-4-yl)-5-fluoro-1,2,3,4-tetrahydroisoquinoline]
-0.5 °C | Fc1ccc2c(c1)CN(C1CCN(C(c3ccccc3)c3ccccc3)CC1)CC2 [Compound 8, 2-(1-benzhydrylpiperidin-4-yl)-7-fluoro-1,2,3,4-tetrahydroisoquinoline]
-2.7 °C | c1ccc(C(c2ccccc2)N2CCC(N3CCc4ncccc4C3)CC2)cc1 [Compound 17, 6-(1-benzhydrylpiperidin-4-yl)-5,6,7,8-tetrahydro-1,6-naphthyridine]

Same assay, conditions: 25 μM compound

ΔTm at 25 µM | Compound
-3.3 °C | c1ccc(C(c2ccccc2)N2CCC(N3CCc4cccnc4C3)CC2)cc1 [Compound 14, 7-(1-benzhydrylpiperidin-4-yl)-5,6,7,8-tetrahydro-1,7-naphthyridine]
0 °C | Fc1ccc2c(c1)CCN(C1CCN(C(c3ccccc3)c3ccccc3)CC1)C2 [Compound 6, 2-(1-benzhydrylpiperidin-4-yl)-6-fluoro-1,2,3,4-tetrahydroisoquinoline]
-3 °C | c1ccc(C(c2ccccc2)N2CCC(N3CCc4cnccc4C3)CC2)cc1 [Compound 19, 2-(1-benzhydrylpiperidin-4-yl)-1,2,3,4-tetrahydro-2,6-naphthyridine]
3.7 °C | N#Cc1ccc2c(c1)CCN(C1CCN(C(c3ccccc3)c3ccccc3)CC1)C2 [Compound 3, 2-(1-benzhydrylpiperidin-4-yl)-1,2,3,4-tetrahydroisoquinoline-6-carbonitrile]
-1.7 °C | Clc1ccc2c(c1)CCN(C1CCN(C(c3ccccc3)c3ccccc3)CC1)C2 [Compound 5, 2-(1-benzhydrylpiperidin-4-yl)-6-chloro-1,2,3,4-tetrahydroisoquinoline]

Same assay, conditions: 100 μM compound

ΔTm at 100 µM | Compound
-1.8 °C | Brc1ccc2c(c1)CCN(C1CCN(C(c3ccccc3)c3ccccc3)CC1)C2 [Compound 1, 2-(1-benzhydrylpiperidin-4-yl)-6-bromo-1,2,3,4-tetrahydroisoquinoline]
0 °C | CCN(CC)c1ccc2c(c1)CCN(C1CN(C(c3ccccc3)c3ccccc3)C1)C2 [Compound 56, 2-(1-benzhydrylazetidin-3-yl)-N,N-diethyl-1,2,3,4-tetrahydroisoquinolin-6-amine]
0 °C | Fc1cccc2c1CN(C1CCN(C(c3ccccc3)c3ccccc3)CC1)CC2 [Compound 9, 2-(1-benzhydrylpiperidin-4-yl)-8-fluoro-1,2,3,4-tetrahydroisoquinoline]
0 °C | Fc1ccc(CN2CCC(N3CCc4cc(Br)ccc4C3)CC2)cc1 [Compound 81, 6-bromo-2-(1-(4-fluorobenzyl)piperidin-4-yl)-1,2,3,4-tetrahydroisoquinoline]
-4.5 °C | Brc1ccc2c(c1)CCN(C1CN(C(c3ccccc3)c3ccccc3)C1)C2 [Compound 43, 2-(1-benzhydrylazetidin-3-yl)-6-bromo-1,2,3,4-tetrahydroisoquinoline]

These molecules were tested against FGFR1 (Homo sapiens, UniProt P11362) (assay: Thermal shift assay (TSA) of FGFR1/FGF2 complex, FGFR1 melting peak). Settings: 2 μM compound; FGF2/FGFR1 complex.
Sequence of FGFR1 (P11362 142-365 limits assumed): as the sequence (P11362 142-365 partner limits assumed) above
Sequence of FGFR1 (P09038 156-288 partner limits assumed): as the sequence (P09038 156-288 limits assumed) above
Assay type: binding
Design: made in house; host or cells: Escherichia coli BL21 (DE3) Star
Description: as §1
Cell pellets were thawed and resuspend in 100 mL of FGFR1 Lysis Buffer per 9 g of pellet (20 mM Tris-HCl pH 8.0, 500 mM NaCl, 1 mM dithiothreitol) by stirring at 4° C. for 1 hour. Cells were lysed in 3 cycles on/off for 3 minutes each at 4° C. via sonication followed by centrifugation for 30 minutes at 16,000 RPM in rotor F20 at 4° C., after which the supernatant was discarded. This process was then repeated twice. The pellets were resuspended in 150 mL FGFR1 solubilization buffer (8 M urea, 20 mM Tris-HCL pH 8.0, 150 mM NaCl, 1 mM dithiothreitol) by stirring for 1 hour at 4° C., and the solution was subjected to centrifugation for 30 minutes at 16,000 RPM in rotor F20 at 4° C. The pellets were discarded, and the supernatant was filtered through a […] polyethersylfone (PES) filter. After filtration, the supernatant was added dropwise to 1 L FGFR1 refolding buffer (20 mM Tris-HCl pH 8.0, 150 mM NaCl, 0.5 M L-arginine, 25 mM MgCl2) using a glass column. Protein was concentrated by tangential flow from 1 L to 100 mL and dialyzed against 1 L of FGFR1 Dialysis Buffer (20 mM Tris-HCl pH 8.0, 150 mM NaCl, 25 mM MgCl2) for 2 hours at 4° C., and the dialysis step was repeated with fresh buffer for an additional 2 hours at 4° C. The material thus obtained was then centrifuged at 4000 RPM in Eppendorf tabletop centrifuge for 5 minutes and loaded onto 2×5 mL heparin columns. The columns were washed extensively (20 CV) using FGFR1 Heparin Buffer A (20 mM Tris-HCl pH 8.0, 150 mM NaCl, 25 mM MgCl2) and then eluted using FGFR1 Heparin Buffer B (20 mM Tris-HCl pH 8.0, 1.5 M NaCl, 25 mM MgCl2). A large peak was recovered that was >95% pure by SDS-PAGE analysis gel (Expected Mw: 25 KDa). The protein was collected and diluted in 20 mM Tris-HCl pH 8.0, 25 mM MgCl2 buffer in order to reach a NaCl concentration of 150 mM. The FGFR1 thus obtained was concentrated and stored at −80° C.
as §2

ΔTm at 2 µM | Compound
9.8 °C | Fc1cccc2c1CCN(C1CN(C(c3ccccc3)c3ccccc3)C1)C2 [Compound 38, 2-(1-benzhydrylazetidin-3-yl)-5-fluoro-1,2,3,4-tetrahydroisoquinoline]
14 °C | CCN(CC)c1ccc2c(c1)CCN(C1CCN(Cc3ccc(F)cc3)CC1)C2 [Compound 85, N,N-diethyl-2-(1-(4-fluorobenzyl)piperidin-4-yl)-1,2,3,4-tetrahydroisoquinolin-6-amine]
11.6 °C | FC1(F)CN(C2CCN(C(c3ccccc3)c3ccccc3)CC2)Cc2ccccc21 [Compound 21, 2-(1-benzhydrylpiperidin-4-yl)-4,4-difluoro-1,2,3,4-tetrahydroisoquinoline]
14.5 °C | c1ccc(C(c2ccccc2)N2CCC(N3CCc4ccncc4C3)CC2)cc1 [Compound 4, 2-(1-benzhydrylpiperidin-4-yl)-1,2,3,4-tetrahydro-2,7-naphthyridine]

Same assay, conditions: 10 μM compound; FGF2/FGFR1 complex

ΔTm at 10 µM | Compound
2 °C | Brc1ccc2c(c1)CCN(C1CCN(C(c3ccccc3)c3ccccc3)CC1)C2 [Compound 1, 2-(1-benzhydrylpiperidin-4-yl)-6-bromo-1,2,3,4-tetrahydroisoquinoline]
10.7 °C | Fc1cccc2c1CCN(C1CCN(C(c3ccccc3)c3ccccc3)CC1)C2 [Compound 7, 2-(1-benzhydrylpiperidin-4-yl)-5-fluoro-1,2,3,4-tetrahydroisoquinoline]
3.3 °C | Fc1ccc2c(c1)CN(C1CCN(C(c3ccccc3)c3ccccc3)CC1)CC2 [Compound 8, 2-(1-benzhydrylpiperidin-4-yl)-7-fluoro-1,2,3,4-tetrahydroisoquinoline]
3 °C | c1ccc(C(c2ccccc2)N2CCC(N3CCc4ncccc4C3)CC2)cc1 [Compound 17, 6-(1-benzhydrylpiperidin-4-yl)-5,6,7,8-tetrahydro-1,6-naphthyridine]

Same assay, conditions: 25 μM compound; FGF2/FGFR1 complex

ΔTm at 25 µM | Compound
5.4 °C | c1ccc(C(c2ccccc2)N2CCC(N3CCc4cccnc4C3)CC2)cc1 [Compound 14, 7-(1-benzhydrylpiperidin-4-yl)-5,6,7,8-tetrahydro-1,7-naphthyridine]
1.5 °C | Fc1ccc2c(c1)CCN(C1CCN(C(c3ccccc3)c3ccccc3)CC1)C2 [Compound 6, 2-(1-benzhydrylpiperidin-4-yl)-6-fluoro-1,2,3,4-tetrahydroisoquinoline]
2.8 °C | c1ccc(C(c2ccccc2)N2CCC(N3CCc4cnccc4C3)CC2)cc1 [Compound 19, 2-(1-benzhydrylpiperidin-4-yl)-1,2,3,4-tetrahydro-2,6-naphthyridine]
0 °C | N#Cc1ccc2c(c1)CCN(C1CCN(C(c3ccccc3)c3ccccc3)CC1)C2 [Compound 3, 2-(1-benzhydrylpiperidin-4-yl)-1,2,3,4-tetrahydroisoquinoline-6-carbonitrile]
1.2 °C | Clc1ccc2c(c1)CCN(C1CCN(C(c3ccccc3)c3ccccc3)CC1)C2 [Compound 5, 2-(1-benzhydrylpiperidin-4-yl)-6-chloro-1,2,3,4-tetrahydroisoquinoline]

Same assay, conditions: 100 μM compound; FGF2/FGFR1 complex

ΔTm at 100 µM | Compound
3 °C | Brc1ccc2c(c1)CCN(C1CCN(C(c3ccccc3)c3ccccc3)CC1)C2 [Compound 1, 2-(1-benzhydrylpiperidin-4-yl)-6-bromo-1,2,3,4-tetrahydroisoquinoline]
-0.5 °C | CCN(CC)c1ccc2c(c1)CCN(C1CN(C(c3ccccc3)c3ccccc3)C1)C2 [Compound 56, 2-(1-benzhydrylazetidin-3-yl)-N,N-diethyl-1,2,3,4-tetrahydroisoquinolin-6-amine]
0 °C | Fc1cccc2c1CN(C1CCN(C(c3ccccc3)c3ccccc3)CC1)CC2 [Compound 9, 2-(1-benzhydrylpiperidin-4-yl)-8-fluoro-1,2,3,4-tetrahydroisoquinoline]
0.3 °C | Fc1ccc(CN2CCC(N3CCc4cc(Br)ccc4C3)CC2)cc1 [Compound 81, 6-bromo-2-(1-(4-fluorobenzyl)piperidin-4-yl)-1,2,3,4-tetrahydroisoquinoline]
6.6 °C | Brc1ccc2c(c1)CCN(C1CN(C(c3ccccc3)c3ccccc3)C1)C2 [Compound 43, 2-(1-benzhydrylazetidin-3-yl)-6-bromo-1,2,3,4-tetrahydroisoquinoline]
